PubChem BioAssay AID1918940 (Molecular Pharmacology Branch, DTP, NCI, 2023)

Tested on: NCI-H211 complex spheroid viability
Test: Anticancer human tumor NCI-H211 cell line growth inhibition [LSD1];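 also: luminescent viability read after seven days of drug exposure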;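 as to viability, T/C: 100% = DMSO vehicle control viability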
Conditions: for IC50: curve of first compound; for viability, T/C: stronger effect = lower value
Method in brief: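 Complex spheroids of tumor cells with HUVEC and human MSCs, exposed to iadademstat combined with other agents. Each agent tested in half-log steps from near clinical Cmax (else 10 microM top), DMSO ≤0.25%.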

[1] = second compound 0.1 µM, first compound 0.000316 µM
[2] = second compound 0.1 µM, first compound 0.001 µM
[3] = second compound 0.1 µM, first compound 0.00316 µM
[4] = second compound 0.1 µM, first compound 0.01 µM
[5] = second compound 0.1 µM, first compound 0.0316 µM
[6] = second compound 0.1 µM, first compound 0.1 µM
[7] = second compound 0.316 µM, first compound 0.000316 µM
[8] = second compound 0.316 µM, first compound 0.001 µM
[9] = second compound 0.316 µM, first compound 0.00316 µM
[10] = second compound 0.316 µM, first compound 0.01 µM
[11] = second compound 0.316 µM, first compound 0.0316 µM
[12] = second compound 0.316 µM, first compound 0.1 µM
[13] = second compound 1 µM, first compound 0.000316 µM
[14] = second compound 1 µM, first compound 0.001 µM
[15] = second compound 1 µM, first compound 0.00316 µM
[16] = second compound 1 µM, first compound 0.01 µM
[17] = second compound 1 µM, first compound 0.0316 µM
[18] = second compound 1 µM, first compound 0.1 µM
[19] = second compound 3.16 µM, first compound 0.000316 µM
[20] = second compound 3.16 µM, first compound 0.001 µM
[21] = second compound 3.16 µM, first compound 0.00316 µM
[22] = second compound 3.16 µM, first compound 0.01 µM
[23] = second compound 3.16 µM, first compound 0.0316 µM
[24] = second compound 3.16 µM, first compound 0.1 µM
[25] = second compound 10 µM, first compound 0.000316 µM
[26] = second compound 10 µM, first compound 0.001 µM
[27] = second compound 10 µM, first compound 0.00316 µM
[28] = second compound 10 µM, first compound 0.01 µM
[29] = second compound 10 µM, first compound 0.0316 µM
[30] = second compound 10 µM, first compound 0.1 µM

| Compound | IC50 (second compound 0.1 µM) [nM] | IC50 (second compound 0.316 µM) [nM] | IC50 (second compound 1 µM) [nM] | IC50 (second compound 3.16 µM) [nM] | IC50 (second compound 10 µM) [nM] | viability, T/C [3] [%] | viability, T/C [4] [%] | viability, T/C [5] [%] | viability, T/C [6] [%] | viability, T/C [9] [%] | viability, T/C [10] [%] | viability, T/C [11] [%] | viability, T/C [12] [%] | viability, T/C [15] [%] | viability, T/C [16] [%] | viability, T/C [17] [%] | viability, T/C [18] [%] | viability, T/C [21] [%] | viability, T/C [22] [%] | viability, T/C [23] [%] | further results |
| --- | --- | --- | --- | --- | --- | --- | --- | --- | --- | --- | --- | --- | --- | --- | --- | --- | --- | --- | --- | --- | --- |
| CC(C)CC(NC(=O)C(Cc1ccccc1)NC(=O)c1cnccn1)B(O)O (stereo not given) + NC1CCC(NC2CC2c2ccccc2)CC1 | 2 | 2.05 | 1.79 | 1.68 | < 0.316 | 29.3 | 2.16 | 3.13 | 6.8 | 35.8 | 1.76 | 0.22 | 0.13 | 32.7 | 1.57 | 0.23 | 2.46 | 27.4 | 1.43 | 0.97 | viability, T/C [1]: 73.8%; viability, T/C [2]: 88.6%; viability, T/C [7]: 70.9%; viability, T/C [8]: 76%; viability, T/C [13]: 62.5%; viability, T/C [14]: 72.7%; viability, T/C [19]: 64.3%; viability, T/C [20]: 72.3%; viability, T/C [24]: 0.14%; viability, T/C [25]: 44.9%; viability, T/C [26]: 45.3%; viability, T/C [27]: 14.2%; viability, T/C [28]: 0.55%; viability, T/C [29]: 0.17%; viability, T/C [30]: 0.14% |
| CC(C)CC(NC(=O)CNC(=O)c1cc(Cl)ccc1Cl)B1OC(=O)CC(CC(=O)O)(C(=O)O)O1 (stereo not given) + NC1CCC(NC2CC2c2ccccc2)CC1 | 15.4 | 18 | 15.3 | 11.8 | < 0.316 | 103 | 65.1 | 22.5 | 7.53 | 111 | 76.9 | 23.5 | 7.18 | 109 | 65.3 | 21.4 | 6.25 | 95.6 | 53 | 18.1 | viability, T/C [1]: 81.6%; viability, T/C [2]: 90.2%; viability, T/C [7]: 81.5%; viability, T/C [8]: 93.3%; viability, T/C [13]: 79.3%; viability, T/C [14]: 85%; viability, T/C [19]: 59.8%; viability, T/C [20]: 65%; viability, T/C [24]: 5.75%; viability, T/C [25]: 44.9%; viability, T/C [26]: 37.5%; viability, T/C [27]: 51.2%; viability, T/C [28]: 35.5%; viability, T/C [29]: 12%; viability, T/C [30]: 2.35% |
| COc1cc(Nc2ncc3c(n2)-c2ccc(Cl)cc2C(c2c(F)cccc2OC)=NC3)ccc1C(=O)O + NC1CCC(NC2CC2c2ccccc2)CC1 | < 3.16 | < 3.16 | < 3.16 | < 3.16 | < 3.16 | 34 | 8.09 | 2.59 | 2.93 | 34.6 | 4.21 | 3.27 | 2.5 | 47.9 | 5.71 | 3.16 | 6.76 | 31.8 | 4.91 | 2.4 | viability, T/C (second compound 0.1 µM, first compound 0.316 µM): 2.92%; viability, T/C (second compound 0.1 µM, first compound 1 µM): 2.47%; viability, T/C (second compound 0.316 µM, first compound 0.316 µM): 2.51%; viability, T/C (second compound 0.316 µM, first compound 1 µM): 2.35%; viability, T/C (second compound 1 µM, first compound 0.316 µM): 2.71%; viability, T/C (second compound 1 µM, first compound 1 µM): 1.94%; viability, T/C [24]: 2.55%; viability, T/C (second compound 3.16 µM, first compound 0.316 µM): 1.47%; viability, T/C (second compound 3.16 µM, first compound 1 µM): 2.19%; viability, T/C [27]: 22.4%; viability, T/C [28]: 2.05%; viability, T/C [29]: 1.29%; viability, T/C [30]: 1.19%; viability, T/C (second compound 10 µM, first compound 0.316 µM): 1.28%; viability, T/C (second compound 10 µM, first compound 1 µM): 1.12% |
